Target: T1, human HIF-PHD2 (Homo sapiens, UniProt Q9GZT9)
T1 construct: FLAG-tagged full length PHD2 expressed in and purified from baculovirus-infected Sf9 cells; FLAG; made in house; host or cells: baculovirus-infected Sf9 cells
Experiment: HIF-PHD2 inhibition assay (hydroxylation of HIF-1α peptide, time resolved fluorescence)
Type: biochemical
Conditions: FLAG-tagged full length PHD2; 0.2 μM 2-oxoglutarate, 0.5 μM HIF-1α peptide
Protocol: To each well of a 384-well plate, 1 μL of test compounds in DMSO (final concentration ranging from 0.3 nM to 10 uM) were added into 20 μl of assay buffer (50 mM Tris pH 7.4/0.01% Tween-20/0.1 mg/ml bovine serum albumin/10 μM ferrous sulfate/1 mM sodium ascorbate/20 μg/ml catalase) containing 0.15 μg/ml FLAG-tagged full length PHD2 expressed in and purified from baculovirus-infected Sf9 cells. […] Purif.

T1 sequence (Q9GZT9 whole entry): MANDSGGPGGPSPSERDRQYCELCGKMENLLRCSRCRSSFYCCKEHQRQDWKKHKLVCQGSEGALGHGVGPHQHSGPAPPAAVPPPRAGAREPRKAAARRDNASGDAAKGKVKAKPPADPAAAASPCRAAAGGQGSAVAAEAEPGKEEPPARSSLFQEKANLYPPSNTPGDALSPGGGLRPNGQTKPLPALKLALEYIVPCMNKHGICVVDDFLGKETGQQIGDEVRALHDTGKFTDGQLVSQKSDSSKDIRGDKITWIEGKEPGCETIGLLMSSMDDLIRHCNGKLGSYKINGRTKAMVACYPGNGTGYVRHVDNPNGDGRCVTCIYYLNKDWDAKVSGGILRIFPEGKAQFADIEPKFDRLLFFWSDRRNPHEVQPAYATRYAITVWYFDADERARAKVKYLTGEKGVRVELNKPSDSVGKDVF

SMILES	IC50 [nM]
CNC(=O)c1ccc(Cn2c3c(c(O)c(C(=O)NCC(=O)O)c2=O)CCOC3)cc1 [Example 55, 2-(4-hydroxy-1-(4-(methylcarbamoyl)benzyl)-2-oxo-2,5,6,8-tetrahydro-1H-pyrano[3,4-b]pyridine-3-carboxamido)acetic acid]	21.3
CC(C)Oc1ccc(Cn2c3c(c(O)c(C(=O)NCC(=O)O)c2=O)CCOC3)cc1 [Example 56, 2-(4-hydroxy-1-(4-isopropoxybenzyl)-2-oxo-2,5,6,8-tetrahydro-1H-pyrano[3,4-b]pyridine-3-carboxamido)acetic acid]	29.1
N#Cc1cccc(Cn2c3c(c(O)c(C(=O)NCC(=O)O)c2=O)CCOC3)c1 [Example 57, 2-(1-(3-cyanobenzyl)-4-hydroxy-2-oxo-2,5,6,8-tetrahydro-1H-pyrano[3,4-b]pyridine-3-carboxamido)acetic acid]	35.2
O=C(O)CNC(=O)c1c(O)c2c(n(Cc3ccccc3Cl)c1=O)COCC2 [Example 58, 2-(1-(2-chlorobenzyl)-4-hydroxy-2-oxo-2,5,6,8-tetrahydro-1H-pyrano[3,4-b]pyridine-3-carboxamido)acetic acid]	25.5
O=C(O)CNC(=O)c1c(O)c2c(n(Cc3ccccn3)c1=O)COCC2 [Example 59, 2-(4-hydroxy-2-oxo-1-(pyridin-2-ylmethyl)-2,5,6,8-tetrahydro-1H-pyrano[3,4-b]pyridine-3-carboxamido)acetic acid]	44.2
O=C(O)CNC(=O)c1c(O)c2c(n(Cc3ccncc3)c1=O)COCC2 [Example 60, 2-(4-hydroxy-2-oxo-1-(pyridin-4-ylmethyl)-2,5,6,8-tetrahydro-1H-pyrano[3,4-b]pyridine-3-carboxamido)acetic acid]	30.4
N#Cc1ccc(Cn2c3c(c(O)c(C(=O)NCC(=O)O)c2=O)CCOC3)cc1F [Example 61, 2-(1-(4-cyano-3-fluorobenzyl)-4-hydroxy-2-oxo-2,5,6,8-tetrahydro-1H-pyrano[3,4-b]pyridine-3-carboxamido)acetic acid]	22.6
O=C(O)CNC(=O)c1c(O)c2c(n(Cc3cncs3)c1=O)COCC2 [Example 62, 2-(4-hydroxy-2-oxo-1-(thiazol-5-ylmethyl)-2,5,6,8-tetrahydro-1H-pyrano[3,4-b]pyridine-3-carboxamido)acetic acid]	44.1
CC(C)(O)c1ccc(Cn2c3c(c(O)c(C(=O)NCC(=O)O)c2=O)CCOC3)cc1 [Example 63, 2-(4-Hydroxy-1-(4-(2-hydroxypropan-2-yl)benzyl)-2-oxo-2,5,6,8-tetrahydro-1H-pyrano[3,4-b]pyridine-3-carboxamido)acetic acid]	67.4
NC(=O)c1ccc(Cn2c3c(c(O)c(C(=O)NCC(=O)O)c2=O)CCOC3)cc1 [Example 64, 2-(1-(4-Carbamoylbenzyl)-4-hydroxy-2-oxo-2,5,6,8-tetrahydro-1H-pyrano[3,4-b]pyridine-3-carboxamido)acetic acid]	30.6
O=C(O)CNC(=O)c1c(O)c2c(n(Cc3ccc(-c4ccc(C(F)(F)F)cc4)cc3)c1=O)COCC2 [Example 65, 2-(4-Hydroxy-2-oxo-1-((4′-(trifluoromethyl)-[1,1′-biphenyl]-4-yl)methyl)-2,5,6,8-tetrahydro-1H-pyrano[3,4-b]pyridine-3-carboxamido)acetic acid]	23.6
O=C(O)CNC(=O)c1c(O)c2c(n(Cc3ccc(-c4ccc(OC(F)(F)F)cc4)cc3)c1=O)COCC2 [Example 66, 2-(4-hydroxy-2-oxo-1-((4′-(trifluoromethoxy)-[1,1′-biphenyl]-4-yl)methyl)-2,5,6,8-tetrahydro-1H-pyrano[3,4-b]pyridine-3-carboxamido)acetic acid]	28.8
O=C(O)CNC(=O)c1c(O)c2c(n(Cc3ccc(-c4ccc(Cl)cc4)cc3)c1=O)COCC2 [Example 67, 2-(1-((4′-chloro-[1,1′-biphenyl]-4-yl)methyl)-4-hydroxy-2-oxo-2,5,6,8-tetrahydro-1H-pyrano[3,4-b]pyridine-3-carboxamido)acetic acid]	13.5
